Our source for the IC50 values is patent US9963462B2 (priority 2015, dated 2018).

Assay [1] has as its system BH4 levels in SK-N-BE (2) cells. The experiment in a line: SKN-N-BE (2) cellular assay, BH4 levels by LC-MS. Type of assay: cell-based. The conditions noted are these: Homo sapiens, SKNBE2, read-out: SK-N-BE(2) IC50, SK-N-BE (2) cells, BH4 levels by LC-MS.
Assay [2] addresses SNAP-hSPR (sepiapterin reductase, SPR) (Homo sapiens, UniProt P35270). The experiment in a line: biochemical. The assay is classed as binding. As to conditions: terbium labelled SNAP-hSPR / SSZ labelled SNAP-EGFP; read-out: hTR-FRET IC50.
Description: TR-FRET Assay: A TR-FRET (homogeneous, time-resolved, fluorescence resonance energy transfer) assay was used to assess activity of compounds following standard assay conditions. […] Compounds were screened at different concentrations and IC50 values calculated.
Terbium labelled SNAP-hSPR and SSZ (sulfasalazine) labelled SNAP-EGFP were used as the protein pair in this assay. Compounds were screened at different concentrations, and 1050 and Kd values calculated.

Sequence of SNAP-hSPR (sepiapterin reductase, SPR) (P35270 whole entry): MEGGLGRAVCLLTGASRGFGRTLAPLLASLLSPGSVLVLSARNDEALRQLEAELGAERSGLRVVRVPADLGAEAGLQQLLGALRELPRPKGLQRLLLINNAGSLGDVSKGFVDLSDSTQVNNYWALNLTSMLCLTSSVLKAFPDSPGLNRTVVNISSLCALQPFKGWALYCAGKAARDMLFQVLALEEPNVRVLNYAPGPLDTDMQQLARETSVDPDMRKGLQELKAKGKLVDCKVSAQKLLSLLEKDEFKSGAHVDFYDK

Turning to `Cc1nn(-c2nc3ccsc3c(=O)[nH]2)c(C)c1C(=O)N1CCC(C)(C)C1` [Q-0411], the values for the IC50 in assay [1] and in assay [2] were 2700 nM and 9 nM, respectively.

In the case of `Cc1c(C(=O)N2CCCCC2(C)C)cnn1-c1nc2ccsc2c(=O)[nH]1` [Q-0412], the IC50 in assay [1] was determined as 500 nM; in assay [2] it was 9 nM.

As for `Cc1c(C(=O)N2[C@H](C)CCC[C@@H]2C)cnn1-c1nc2ccsc2c(=O)[nH]1` [Q-0417], the half-maximal inhibitory concentration (IC50) in assay [1] worked out at 900 nM; in assay [2], 4 nM.

As for `Cc1nn(-c2nc3ccsc3c(=O)[nH]2)c(C)c1C(=O)N1CCC(C(F)(F)F)CC1` [Q-0419], the IC50 in assay [1] came out at 700 nM; in assay [2] it was 5 nM.

`Cc1nc(-n2ncc(C(=O)N3CCC(C(F)(F)F)CC3)c2C)[nH]c(=O)c1Cl` [Q-0421]: the IC50 in assay [1] was found to be 700 nM; in assay [2], 3 nM.

As for `Cc1c(C(=O)N2CCC(C(F)(F)F)CC2C)cnn1-c1nc2ccsc2c(=O)[nH]1` (centres unmarked) [Q-0422], the IC50 in assay [1] was determined as 200 nM; in assay [2], 3 nM.

Take `Cc1c(C(=O)N2CCC(F)(F)CC2)cnn1-c1nc2c(c(=O)[nH]1)CCC2` [Q-0424]: the IC50 in assay [1] turned out to be 1100 nM; in assay [2], 4 nM.

On to `Cc1c(C(=O)N2CCC(C(F)(F)F)CC2)cnn1-c1nc2c(c(=O)[nH]1)CCCC2` [Q-0425], for which the IC50 in assay [1] is 2100 nM; in assay [2], 30 nM.

For the compound `Cc1c(C(=O)N2CCC(C(F)(F)F)CC2)cnn1-c1nc2c(ccn2C)c(=O)[nH]1` [Q-0426], the IC50 is 16000 nM in assay [1] and 100 nM in assay [2].

`Cc1c(C(=O)N2CCC(c3ccccc3)CC2)cnn1-c1nc2c(c(=O)[nH]1)CCC2` [Q-0428]: the results for the IC50 in assay [1] and in assay [2] were 19 nM and 3 nM, respectively.

As for `Cc1c(C(=O)N2CCC(C(F)(F)F)CC2)cnn1-c1nc2ccccc2c(=O)[nH]1` [Q-0429], the IC50 in assay [1] turned out to be 49000 nM; in assay [2], 100 nM.

For the compound `Cc1c(C(=O)N2CCC(C(F)(F)F)C2)cnn1-c1nc2c(c(=O)[nH]1)CCC2` (centres unmarked) [Q-0431], the IC50 in assay [1] was determined as 500 nM; in assay [2] it was 3 nM.

Regarding `Cc1cc(=O)[nH]c(-n2cc(C(=O)N3CCC(C(F)(F)F)CC3)c(C)n2)n1` [Q-0432, 6-methyl-2-{3-methyl-4-[4-(trifluoromethyl)piperidine-1-carbonyl]-1H-pyrazol-1-yl}-3,4-dihydropyrimidin-4-one], the IC50 in assay [1] amounted to 6500 nM; in assay [2] it was 40 nM.

For the compound `Cc1c(C(=O)N(CCC(F)(F)F)CC(F)(F)F)cnn1-c1nc2c(c(=O)[nH]1)CCC2` [Q-0435], the IC50 in assay [1] amounted to 1200 nM; in assay [2] it was 20 nM.

On to `Cc1c(C(=O)N2CCC(C(F)(F)F)CC2)cnn1-c1nc2[nH]ncc2c(=O)[nH]1` [Q-0438], for which the IC50 in assay [1] came out at 35000 nM; in assay [2] it was 100 nM.

With `Cc1cc(-n2ncc(C(=O)N3CCC(C(F)(F)F)CC3)c2C)[nH]c(=O)c1` [Q-0439, 4-methyl-6-{5-methyl-4-[4-(trifluoromethyl)piperidine-1-carbonyl]-1H-pyrazol-1-yl}-1,2-dihydropyridin-2-one], the IC50 in assay [1] was 96 nM; in assay [2], 1 nM.

Take `Cc1cc(-n2cc(C(=O)N3CCC(C(F)(F)F)CC3)c(C)n2)[nH]c(=O)c1` [Q-0440, 4-methyl-6-{3-methyl-4-[4-(trifluoromethyL)piperidine-1-carbonyl]-1H-pyrazol-1-yl}-1,2-dihydropyridin-2-one]: the IC50 in assay [1] worked out at 1400 nM; in assay [2], 9 nM.

Take `Cc1c(C(=O)N2CCC(C(F)(F)F)CC2)cnn1-c1nc2scnc2c(=O)[nH]1` [Q-0441]: the IC50 in assay [1] worked out at 31000 nM; in assay [2], 100 nM.

On to `Cc1cc(=O)[nH]c(-n2cc(C(=O)N3CCC(C(F)(F)F)CC3)cn2)n1` [Q-0443], for which the IC50 in assay [1] stood at 3900 nM; in assay [2] it was 9 nM.

Turning to `Cc1cc(=O)[nH]c(-n2ncc(C(=O)N3CCC(C(F)(F)F)CC3)c2C(C)C)n1` [Q-0444], the IC50 in assay [1] was 2700 nM; in assay [2] it was 10 nM.

In the case of `CC(C)c1c(C(=O)N2CCC(C(F)(F)F)CC2)cnn1-c1nc2c(c(=O)[nH]1)CCC2` [Q-0445], the IC50 came out at 900 nM in assay [1] and 10 nM in assay [2].

With `Cc1c(C(=O)N2CCC(O)(c3ccccc3)CC2)cnn1-c1nc2c(c(=O)[nH]1)CCC2` [Q-0446], the IC50 in assay [1] came out at 96 nM; in assay [2], 7 nM.

As for `Cc1c(C(=O)N2CCC(C(C)(O)C(F)(F)F)CC2)cnn1-c1nc2c(c(=O)[nH]1)CCC2` (centres unmarked) [Q-0449], the IC50 was found to be 78 nM in assay [1] and 3 nM in assay [2].

For the compound `Cc1c(C(=O)N2CCCC(C(F)(F)F)C2)cnn1-c1nc2c(c(=O)[nH]1)CCC2` (centres unmarked) [Q-0450], the results for the IC50 in assay [1] and in assay [2] were 300 nM and 5 nM, respectively.

For the compound `Cc1nc(-n2ncc(C(=O)N3CCc4ccccc4C3)c2C)[nH]c(=O)c1Cl` [Q-0456], the IC50 was 500 nM in assay [1] and 8 nM in assay [2].

`Cc1nn(-c2nc3ccsc3c(=O)[nH]2)c(C)c1C(=O)N1CCc2ccccc2C1` [Q-0458]: the IC50 in assay [1] worked out at 400 nM; in assay [2], 6 nM.

For the compound `Cc1cc(-n2cc(C(=O)N3CCC(C(F)(F)F)CC3)cn2)[nH]c(=O)c1` [Q-0460, 4-methyl-6-{4-[4-(trifluoromethyl)piperidine-1-carbonyl]-1H-pyrazol-1-yl}-1,2-dihydropyridin-2-one], the IC50 in assay [1] came to 600 nM; in assay [2] it was 3 nM.

Regarding `COC1CCN(C(=O)c2cnn(-c3nc4c(c(=O)[nH]3)CCC4)c2C)CC1` [Q-0461], the values for the IC50 in assay [1] and in assay [2] were 400 nM and 3 nM, respectively.

`Cc1c(C(=O)N2CCC(Oc3ccccc3)CC2)cnn1-c1nc2c(c(=O)[nH]1)CCC2` [Q-0462]: the IC50 stood at 94 nM in assay [1] and 5 nM in assay [2].

With `O=C(c1cnn(-c2nc3c(c(=O)[nH]2)CCC3)c1C1CC1)N1CCC(C(F)(F)F)CC1` [Q-0463], the IC50 is 300 nM in assay [1] and 4 nM in assay [2].

As to `Cc1c(C(=O)N2CCC(C#N)CC2)cnn1-c1nc2c(c(=O)[nH]1)CCC2` [Q-0464], the IC50 was found to be 300 nM in assay [1] and 3 nM in assay [2].

For `O=c1[nH]c(-c2ccc(Br)cn2)nc2c1CCC2` [Q-0465], the IC50 stood at 150000 nM in assay [1] and 300 nM in assay [2].

For `Cc1c(C(=O)N2CCC(C(F)(F)F)CC2)cnn1-c1cc(C(F)(F)F)cc(=O)[nH]1` [Q-0466, 6-{5-methyl-4-[4-(trifluoromethyl)piperidine-1-carbonyl]-1H-pyrazol-1-yl}-4-(trifluoromethyl)-1,2-dihydropyridin-2-one], the IC50 in assay [1] was found to be 59 nM; in assay [2], 1 nM.

Take `Cc1c(C(=O)N2CCCC(Oc3ccccc3)C2)cnn1-c1nc2c(c(=O)[nH]1)CCC2` (centres unmarked) [Q-0468]: the IC50 amounted to 200 nM in assay [1] and 7 nM in assay [2].

Take `Cc1c(C(=O)N2CCC(C(C)(C)C#N)CC2)cnn1-c1nc2c(c(=O)[nH]1)CCC2` [Q-0469]: the IC50 in assay [1] was 37 nM; in assay [2], 4 nM.

`COC1CN(C(=O)c2cnn(-c3nc4c(c(=O)[nH]3)CCC4)c2C)C1` [Q-0470]: the IC50 in assay [1] is 1000 nM; in assay [2] it was 5 nM.

In the case of `COC(=O)c1ccc(-c2nc3c(c(=O)[nH]2)CCC3)nc1` [Q-0471], the figures for the IC50 in assay [1] and in assay [2] were 16000 nM and 80 nM, respectively.
